Reference: patent publication US20170190671A1, “BIS(ARYL)CATECHOL DERIVATIVES AS HERBICIDES” (E I DU PONT DE NEMOURS AND COMPANY, priority 2014, published 2017)

Key:
wild oat (Avenafatua) = assay: Test D preemergence; format: in vivo, Avena fatua; settings: scale 0 to 100
Description: Seeds of plant species selected from bluegrass (annual bluegrass, Poa annua), blackgrass (Alopecurus myosuroides), canarygrass (Phalaris minor), chickweed (common chickweed, Stellaria media), cutleaf geranium (Geranium dissectum), galium (catchweed bedstraw, Galium aparine), downy bromegrass (Bromus tectorum), field poppy (Papaver rhoeas), field violet (Viola arvensis), green foxtail (Setaria viridis), deadnettle (henbit deadnettle, Lamium amplexicaule), Italian ryegrass (Lolium multiflorum), kochia (Kochia scoparia), lambsquarters (Chenopodium album), oilseed rape (Brassica napus), pigweed (Amaranthus retroflexus), chamomile (scentless chamomile, Matricaria inodora), Russian thistle (Salsola kali), speedwell (bird's-eye speedwell, Veronica persica), spring barley (Hordeum vulgare), spring wheat (Triticum aestivum), wild buckwheat (Polygonum convolvulus), wild mustard (Sinapis arvensis), wild oat (Avenafatua), wild radish (Raphanus raphanistrum), windgrass (Apera spica-venti), winter barley (Hordeum vulgare), and winter wheat (Triticum aestivum) were planted into a silt loam soil and treated preemergence with test chemicals formulated in a non-phytotoxic solvent mixture which included a surfactant.
At the same time, these species were planted in pots containing Redi-Earth® planting medium (Scotts Company, 14111 Scottslawn Road, Marysville, Ohio 43041) comprising spaghnum peat moss, vermiculite, wetting agent and starter nutrients and treated with postemergence applications of the test chemicals formulated in the same manner. Plants ranged in height from 2 to 18 cm (1- to 4-leaf stage). Treated plants and controls were maintained in a controlled growth environment for 14 to 21 days after which time all species were compared to controls and visually evaluated. Plant response ratings, summarized in Table D, are based on a scale of 0 to 100 where 0 is no effect and 100 is complete control. A dash (-) response means no test result.

[1] = system: wheat (Triticum aestivum); assay: Test A preemergence; format: in vivo; settings: for Plant response rating, Wheat: 0 to 100 scale
Outline: (§1)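 Compounds in non-phytotoxic solvent with surfactant applied as soil spray preemergence, or postemergence to plants 2-10 cm at one- to two-leaf stage, in loam/sand. After approximately 10 days in greenhouse, injury rated visually versus untreated controls, 0 (no effect) to 100 (complete control).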

[2] = system: velvetleaf (Abutilon theophrasti); assay: Test A preemergence; format: in vivo; settings: for Plant response rating, Velvetleaf: 0 to 100 scale
Outline: as §1

[3] = system: morningglory (Ipomoea spp.); assay: Test A preemergence; format: in vivo; settings: for Plant response rating, Morningglory: 0 to 100 scale
Outline: as §1

corn (Zea mays) = assay: Test A preemergence; format: in vivo; settings: 0 to 100 scale
Outline: as §1

[4] = system: large (Lg) crabgrass (Digitaria sanguinalis); assay: Test A preemergence; format: in vivo; settings: for Plant response rating, Crabgrass, Large: 0 to 100 scale
Outline: as §1

[5] = system: lambsquarters (Chenopodium album); assay: Test D preemergence; format: in vivo; settings: scale 0 to 100
Outline: (§2)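 Visual injury scored 0–100 (0 = no effect, 100 = complete control) against controls 14 to 21 days after treatment in a controlled growth environment. Compounds were applied in surfactant-containing non-phytotoxic solvent, preemergence onto silt loam-sown seeds or postemergence onto 1- to 4-leaf plants.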

[6] = system: winter wheat (Triticum aestivum); assay: Test D preemergence; format: in vivo; settings: scale 0 to 100
Outline: as §2

[7] = system: wild radish (Raphanus raphanistrum); assay: Test D preemergence; format: in vivo; settings: scale 0 to 100
Outline: as §2

[8] = system: green foxtail (Setaria viridis); assay: Test D preemergence; format: in vivo; settings: scale 0 to 100
Outline: as §2

[9] = system: chamomile (scentless chamomile, Matricaria inodora); assay: Test D preemergence; format: in vivo; settings: scale 0 to 100
Outline: as §2

[10] = system: field violet (Viola arvensis); assay: Test D preemergence; format: in vivo; settings: scale 0 to 100
Outline: as §2

[11] = system: velvetleaf (Abutilon theophrasti); assay: Test A postemergence; format: in vivo; settings: 0 to 100 scale
Outline: as §1

[12] = system: morningglory (Ipomoea spp.); assay: Test A postemergence; format: in vivo; settings: 0 to 100 scale
Outline: as §1

[13] = system: large (Lg) crabgrass (Digitaria sanguinalis); assay: Test A postemergence; format: in vivo; settings: 0 to 100 scale
Outline: as §1

[14] = 125 g ai/ha, 0 to 100 scale (0 no effect, 100 complete control)

N#Cc1cccc(Oc2ncc(Cl)cn2)c1Oc1ncc(Cl)cn1 [Compound 3, 2,3-bis[(5-chloro-2-pyrimidinyl)oxy]benzonitrile]
Plant response rating, Oat, Wild (wild oat (Avenafatua); 16 g ai/ha): 0
Plant response rating, Oat, Wild (wild oat (Avenafatua); 31 g ai/ha): 0
Plant response rating, Oat, Wild (wild oat (Avenafatua); 62 g ai/ha): 0
Plant response rating, Oat, Wild (wild oat (Avenafatua); 125 g ai/ha): 50
Plant response rating, Wheat ([1]; 125 g ai/ha): 30
Plant response rating, Wheat ([1]; 500 g ai/ha): 80
Plant response rating, Velvetleaf ([2]; 125 g ai/ha): 100
Plant response rating, Velvetleaf ([2]; 500 g ai/ha): 100
Plant response rating, Morningglory ([3]; 125 g ai/ha): 100
Plant response rating, Morningglory ([3]; 500 g ai/ha): 100
Plant response rating, Corn (corn (Zea mays); 125 g ai/ha): 60
Plant response rating, Corn (corn (Zea mays); 500 g ai/ha): 70
Plant response rating, Crabgrass, Large ([4]; 125 g ai/ha): 100
Plant response rating, Crabgrass, Large ([4]; 500 g ai/ha): 100
Plant response rating, Lambsquarters ([5]; 16 g ai/ha): 10
Plant response rating, Lambsquarters ([5]; 31 g ai/ha): 95
Plant response rating, Lambsquarters ([5]; 62 g ai/ha): 100
Plant response rating, Lambsquarters ([5]; 125 g ai/ha): 100
Plant response rating, Wheat, Winter ([6]; 16 g ai/ha): 0
Plant response rating, Wheat, Winter ([6]; 31 g ai/ha): 0
Plant response rating, Wheat, Winter ([6]; 62 g ai/ha): 5
Plant response rating, Wheat, Winter ([6]; 125 g ai/ha): 10
Plant response rating, Radish, Wild ([7]; 16 g ai/ha): 30
Plant response rating, Radish, Wild ([7]; 31 g ai/ha): 80
Plant response rating, Radish, Wild ([7]; 62 g ai/ha): 100
Plant response rating, Radish, Wild ([7]; 125 g ai/ha): 100
Plant response rating, Foxtail, Green ([8]; 16 g ai/ha): 10
Plant response rating, Foxtail, Green ([8]; 31 g ai/ha): 60
Plant response rating, Foxtail, Green ([8]; 62 g ai/ha): 100
Plant response rating, Foxtail, Green ([8]; 125 g ai/ha): 100
Plant response rating, Chamomile ([9]; 16 g ai/ha): 10
Plant response rating, Chamomile ([9]; 31 g ai/ha): 20
Plant response rating, Chamomile ([9]; 62 g ai/ha): 35
Plant response rating, Chamomile ([9]; 125 g ai/ha): 85
Plant response rating, Field Violet ([10]; 16 g ai/ha): 100
Plant response rating, Field Violet ([10]; 31 g ai/ha): 100
Plant response rating, Field Violet ([10]; 62 g ai/ha): 100
Plant response rating, Field Violet ([10]; 125 g ai/ha): 100
Plant response rating, Velvetleaf ([11]; 125 g ai/ha): 100
Plant response rating, Velvetleaf ([11]; 500 g ai/ha): 100
Plant response rating, Morningglory ([12]; 125 g ai/ha): 100
Plant response rating, Morningglory ([12]; 500 g ai/ha): 100
Plant response rating, Crabgrass, Large ([13]; 125 g ai/ha): 90
Plant response rating, Crabgrass, Large ([13]; 500 g ai/ha): 90

Clc1cnc(Oc2cccc(Br)c2Oc2ncc(Cl)cn2)nc1 [Compound 19, 2,2′-[[3-bromo-1,2-phenylene]bis(oxy)]bis[5-chloropyrimidine]]
Wheat plant response rating [1, 14]: 40
Plant response rating, Wheat ([1]; 500 g ai/ha): 70
Velvetleaf plant response rating [2, 14]: 80
Plant response rating, Velvetleaf ([2]; 500 g ai/ha): 90
Morningglory plant response rating [3, 14]: 70
Plant response rating, Morningglory ([3]; 500 g ai/ha): 100
Plant response rating, Corn (corn (Zea mays); 125 g ai/ha): 10
Plant response rating, Corn (corn (Zea mays); 500 g ai/ha): 60
Crabgrass, Large plant response rating [4, 14]: 100
Plant response rating, Crabgrass, Large ([4]; 500 g ai/ha): 100
Plant response rating, Velvetleaf ([11]; 125 g ai/ha): 100
Plant response rating, Velvetleaf ([11]; 500 g ai/ha): 100
Plant response rating, Morningglory ([12]; 125 g ai/ha): 70
Plant response rating, Morningglory ([12]; 500 g ai/ha): 100
Plant response rating, Crabgrass, Large ([13]; 125 g ai/ha): 70
Plant response rating, Crabgrass, Large ([13]; 500 g ai/ha): 90
